Test results: patent publication US20100113504A1, “AMIDE COMPOUNDS AND THEIR USE AS ANTITUMOR AGENTS” (SIGMA-TAU INDUSTRIE FARMACEUTICHE RIUNITE S.P.A., priority 2007, published 2010)
Like-named read-outs stand apart in the source and are kept apart here.

Columns and labels:
[1] = rcm bond
[2] = rcm bond, Grubbs II, CH2Cl2, 1.0 mM
[3] = system: HCT-116 human colon carcinoma cells; assay: Cytotoxicity (sulphorodamine B) on HCT-116 tumor cells; format: cell-based; conditions: Homo sapiens, HCT-116 cells, 24 h treatment, then 48 h in drug-free medium, read-out: IC50 ± SD, HCT-116
Description: (§1) Tumor cells were seeded in 96-well tissue culture plates at approximately 10% confluence and were allowed to attach and recover for at least 24 h. […] The plates were incubated for 24 h at 37° C. At the end of the treatment, for NB4 tumor cells in suspension, the procedure was performed as follows: medium culture was removed by centrifugation of the plates at 1600×g for 10 min and the surnatant was removed. 250 μl PBS were added, then the plates were centrifuged at 1600×g for 10 min, the surnatant was removed. […] The plates were centrifuged again at 1600×g for 10 min, the medium culture was removed and 200 μl PBS and 50 μl of cold 80% TCA were added. The plates were incubated on ice for at least 1 h. TCA was removed, the plates were washed 3 times for immersion in distilled-water and dried before on paper, then in a thermostater at 40° C. Subsequently 200 μl of 0.4% sulphorodamine B in 1% acetic acid were added. The plates were incubated at room temperature for other 30 min. Sulphorodamine B was removed, the plates were washed for immersion in 1% acetic acid for 3 times, then they were washed and dried on paper. 200 μl Tris 10 mM were added, the plates were kept under stirring for 20 min. The survival cell was determined as optical density by a Multiskan spectrofluorimeter at 540 nm. […] Also the last day of the assay, the surnatant was removed without centrifugation.
(§2) The amount of cells killed was calculated as the percentage decrease in sulphorodamine B binding compared with control cultures.

[4] = system: NB4 human promyelocitic leukaemia; assay: Cytotoxicity (sulphorodamine B) on NB4 tumor cells; format: cell-based; conditions: Homo sapiens, NB-4, 24 h treatment, then 48 h in drug-free medium, read-out: IC50 ± SD, NB4
Description: To test the effects of the compounds on cell growth, NB4 human promyelocitic leukaemia, NCI-H460 non-small cell carcinoma cells and HCT-116 human colon carcinoma cells were used. NB4 and NCI-H460 tumor cells were grown RPMI 1640 containing 10% fetal bovine serum (GIBCO), whereas HCT-116 tumor cells were grown in McCoy's 5A containing 10% fetal bovine serum (GIBCO).
Tumor cells were seeded in 96-well tissue culture plates at approximately 10% confluence and were allowed to attach and recover for at least 24 h. […] The plates were incubated for 24 h at 37° C. At the end of the treatment, for NB4 tumor cells in suspension, the procedure was performed as follows: medium culture was removed by centrifugation of the plates at 1600×g for 10 min and the surnatant was removed. 250 μl PBS were added, then the plates were centrifuged at 1600×g for 10 min, the surnatant was removed. 200 μl/well of medium culture RPMI 1640 containing 10% FCS were added and the plates were incubated at 37° C. for other 48 h. The plates were centrifuged again at 1600×g for 10 min, the medium culture was removed and 200 μl PBS and 50 μl of cold 80% TCA were added. The plates were incubated on ice for at least 1 h. TCA was removed, the plates were washed 3 times for immersion in distilled-water and dried before on paper, then in a thermostater at 40° C. Subsequently 200 μl of 0.4% sulphorodamine B in 1% acetic acid were added. The plates were incubated at room temperature for other 30 min. Sulphorodamine B was removed, the plates were washed for immersion in 1% acetic acid for 3 times, then they were washed and dried on paper. 200 μl Tris 10 mM were added, the plates were kept under stirring for 20 min. The survival cell was determined as optical density by a Multiskan spectrofluorimeter at 540 nm. For the tumor cells in adhesion (NCI-H460 and HCT-116), the procedure was as above mentioned, except that the at the end of the treatment, the plates were washed by remotion of the surnatant and addition of PBS 3 times and not by centrifugation. Also the last day of the assay, the surnatant was removed without centrifugation.
as §2

[5] = system: NCI-H460 non-small cell carcinoma cells; assay: Cytotoxicity (sulphorodamine B) on NCI-H460 tumor cells; format: cell-based; conditions: Homo sapiens, 24 h treatment, then 48 h in drug-free medium, read-out: IC50 ± SD, NCI-H460
Description: as §1, §2

[6] = system: NB4, NCI-H460 and HCT-116 tumor cells; assay: Cytotoxicity summarised over the three tumor cell lines; format: cell-based; conditions: Homo sapiens; mean over NB4, NCI-H460, HCT-116; 24 h of treatment
Description: as §1, §2

| Molecule | IC50 [3] [µM] | IC50 [4] [µM] | IC50 [5] [µM] | IC50 [6] [µM] | also measured |
| --- | --- | --- | --- | --- | --- |
| COC(=O)CCCCC[C@H]1C(=O)Nc2ccccc2OCCCC=CCN1C(=O)OC(C)(C)C | – | – | – | – | ring closure, yield of all isomers ([1]; from C=CCCCOc1ccccc1NC(=O)[C@H](CCCCCC(=O)OC)N(CC=C)C(=O)OC(C)(C)C): 84% |
| COC(=O)CCCCC[C@H]1C(=O)Nc2ccccc2OCCCCC=CCN1C(=O)OC(C)(C)C | – | – | – | – | ring closure, yield of all isomers ([1]; from C=CCCCCOc1ccccc1NC(=O)[C@H](CCCCCC(=O)OC)N(CC=C)C(=O)OC(C)(C)C): 82% |
| 7-(S)-Allyl-tert-butoxycarbonylamino)-7-(2-hex-5-enyloxyphenylcarbamoyl)heptanoic acid methyl ester | – | – | – | – | ring closure, isolated yield ([2]; the molecule shown is the open-chain precursor, 14-membered ring): 82% |
| 7-(S)-Allyl-tert-butoxycarbonylamino)-7-(2-pent-4-enyloxyphenylcarbamoyl)heptanoic acid methyl ester | – | – | – | – | ring closure, isolated yield ([2]; the molecule shown is the open-chain precursor, 13-membered ring): 84% |
| COC(=O)CCCCCC1OCC=CCC(c2ccc(OC)cc2)Oc2ccccc2NC1=O (racemic) | – | – | – | – | ring closure, isolated yield ([2]; from C=CCOC(CCCCCC(=O)OC)C(=O)Nc1ccccc1OC(CC=C)c1ccc(OC)cc1, 12-membered ring): 45% |
| COC(=O)CCCCCC1OCC=CCCCOc2ccncc2NC1=O (racemic) | – | – | – | – | ring closure, isolated yield ([2]; from C=CCCCOc1ccncc1NC(=O)C(CCCCCC(=O)OC)OCC=C, 13-membered ring): 45%; ring closure, yield of all isomers ([1]; from C=CCCCOc1ccncc1NC(=O)C(CCCCCC(=O)OC)OCC=C): 45% |
| COC(=O)CCCCCC1OCC=Cc2cc(cc(OC)c2)COc2ccccc2NC1=O (racemic) | – | – | – | – | ring closure, isolated yield ([2]; from C=CCOC(CCCCCC(=O)OC)C(=O)Nc1ccccc1OCc1cc(C=C)cc(OC)c1, 14-membered ring): 52% |
| COc1cc(COC(CCCCCC(=O)NO)C(=O)Nc2ccccc2)cc(OC)c1 (racemic) [Compound 9j, (±)-2-(3,5-Dimethoxybenzyloxy)octanedioic acid 8-hydroxyamide 1-phenylamide] | 0.3 ± 0.008 | 0.05 ± 0.005 | 0.4 ± 0.07 | < 1 | – |
| O=C(CCCCCC(OCc1cccc(Oc2ccccc2)c1)C(=O)Nc1ccccc1)NO (racemic) [Compound 9k, (±)-2-(3-Phenoxybenzyloxy)-octanedioic acid 8-hydroxyamide 1-phenylamide] | 0.7 ± 0.08 | 0.2 ± 0.009 | 0.7 ± 0.04 | < 1 | – |
| COc1ccc(NC(=O)C(CCCCCC(=O)NO)OCc2ccccc2)cc1 (racemic) [Compound 9l, (±)-2-Benzyloxyoctanedioic acid 8-hydroxyamide 1-[(4-methoxyphenyl)-amide]] | 0.5 ± 0.06 | 0.2 ± 0.02 | 1 ± 0.09 | < 1 | – |
| COc1ccc(COC(CCCCCC(=O)NO)C(=O)Nc2ccc(OC)cc2)cc1 (racemic) [Compound 9m, (±)-2-(4-Methoxybenzyloxy)octanedioic acid 8-hydroxyamide 1-[(4-methoxyphenyl)amide]] | 0.3 ± 0.01 | 0.1 ± 0.04 | 0.3 ± 0.04 | < 1 | – |
| COc1ccc(COC(CCCCCCC(=O)NO)C(=O)Nc2ccccc2)cc1 (racemic) [Compound 13d, (±)-2-(4-Methoxybenzyloxy)nonanedioic acid 9-hydroxyamide 1-phenylamide] | 0.5 ± 0.1 | 0.3 ± 0.03 | 0.7 ± 0.03 | < 1 | – |
| COc1ccc(CO[C@H](CCCCCC(=O)NO)C(=O)Nc2ccccc2)cc1 [(R)-9d, 2-(R)-(4-Methoxybenzyloxy)octanedioic acid 8-hydroxyamide 1-phenylamide] | 0.4 ± 0.01 | 0.07 ± 0.01 | 0.5 ± 0.03 | < 1 | – |
